Structures are written as SMILES.

The target in assay [1] is T1, HSD3B7 (Homo sapiens, UniProt Q9H2F3).
T1 sequence (Q9H2F3 1-369): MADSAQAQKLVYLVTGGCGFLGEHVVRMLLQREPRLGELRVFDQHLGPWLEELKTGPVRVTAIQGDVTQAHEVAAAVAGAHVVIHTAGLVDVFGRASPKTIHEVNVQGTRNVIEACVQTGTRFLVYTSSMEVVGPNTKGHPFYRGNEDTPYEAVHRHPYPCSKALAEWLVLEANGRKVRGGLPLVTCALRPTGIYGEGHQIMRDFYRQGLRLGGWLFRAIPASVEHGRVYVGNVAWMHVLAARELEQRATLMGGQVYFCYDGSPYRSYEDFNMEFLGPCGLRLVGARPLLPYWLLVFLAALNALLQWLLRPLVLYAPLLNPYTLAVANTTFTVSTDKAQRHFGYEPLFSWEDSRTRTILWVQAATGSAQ
Put plainly: recombinant HSD3B7 activity by NAD+ reduction to NADH. The format is biochemical.

Assay [2] has as its target T1, HSD3B7. Put plainly: recombinant HSD3B7 NAD. Type of assay: biochemical.

In the case of `NC(=O)c1ccc[n+]([C@@H]2O[C@H](COP(=O)([O-])OP(=O)(O)OC[C@H]3O[C@@H](n4cnc5c(N)ncnc54)[C@H](O)[C@@H]3O)[C@@H](O)[C@H]2O)c1` [NAD+], the “recombinant HSD3B7 activity by NAD+ reduction to NADH (fluorescence)” value in assay [1] is given as “recombinant human HSD3B7 protein, whose enzymatic activity was assessed by monitoring fluorescence induced by NAD^+ reduction to NADH”. On to `CC1=C(O)C(=O)C=C2C1=CC=C1[C@@]2(C)CC[C@@]2(C)[C@@H]3C[C@](C)(C(=O)O)CC[C@]3(C)CC[C@]12C` [celastrol], for which the IC50 result in assay [2] was “low micromolar”. Same read-out and setting: with `COc1ccc(-c2cc(=O)c3c(O)cc(O)c(-c4cc(-c5cc(=O)c6c(O)cc(O)cc6o5)ccc4OC)c3o2)cc1` [isoginkgetin] the entry was “low micromolar”.
